Source: patent publication US12721838B2 (Henry Ford Health System, priority 2020, dated 2026)
Values joined by “and” are separate entries in the source; they are usually repeats but may differ in a detail not shown here. Equal entries are not always repeated. Where two headings read alike, the source gives them in different places.

Experiments:
c-JNK, caspase 3 = test: Activation of c-JNK and caspase 3; format: cell-based, human; settings: LNCaP-ENR cells
Procedure: To explore the underlying mechanism of DCV-induced apoptosis in ERPC cells, the effect of DCV on Jun N-terminal kinases (JNKs) was analyzed. JNKs play a critical role in apoptotic pathways. […] Both caspase-dependent and caspase-independent apoptotic cell death processes are known.

[1] = cited from earlier work
TRIB2 = biological target: T1, TRIB2 (Homo sapiens, UniProt Q92519); test: Western blot of TRIB2 protein levels in cancer cells; format: cell-based; set-up: Whole cell lysate proteins were analyzed by Western blot; endogenous in cells; host or cells: LNCaP-ENR (enzalutamide-resistant LNCaP) cells; settings: for TRIB2 protein levels: LNCaP-ENR cells, 24 hours
T1 sequence (Q92519 1-343): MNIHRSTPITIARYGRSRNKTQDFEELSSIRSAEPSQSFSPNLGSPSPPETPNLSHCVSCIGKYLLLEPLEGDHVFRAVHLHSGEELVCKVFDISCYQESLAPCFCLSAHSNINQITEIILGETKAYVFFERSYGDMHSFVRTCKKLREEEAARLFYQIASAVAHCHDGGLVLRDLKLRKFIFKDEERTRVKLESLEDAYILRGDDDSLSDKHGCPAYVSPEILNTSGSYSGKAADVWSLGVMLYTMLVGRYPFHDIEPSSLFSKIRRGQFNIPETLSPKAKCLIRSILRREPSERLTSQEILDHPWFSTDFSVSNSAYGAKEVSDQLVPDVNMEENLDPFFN
Procedure: Enzalutamide-resistant prostate cancer (ERPC) cells (LNCaP-ENR cells) were plated and treated with 10 μM each of various compounds for 24 hours. Exemplary methods for developing and using LNCaP-ENR cells is disclosed in Monga, J., Subramani, D., Bharathan, A., and Ghosh, J. (2020) “Pharmacological and genetic targeting of 5-lipoxygenase interrupts c-Myc oncogenic signaling and kills enzalutamide-resistant prostate cancer cells via apoptosis.” Scientific Reports 10: 6649, the disclosure of which is incorporated herein by reference in its entirety. Whole cell lysate proteins were analyzed by Western blot. TRIB2 antibody was used to detect protein levels of TRIB2 and GAPDH was used as loading control. Monoclonal anti-Trib2 antibody was purchased from Santa Cruz Biotech, Santa Cruz, CA.
LNCaP-ENR cells were treated with varying doses (4 μM, 8 μM, or 12 μM) of DCV for 24 hours. Effects on TRIB2 protein levels and its downstream targets (e.g., pAkt, Bcl-xL, Survivin, and FOXO3) were analyzed by Western blot. GAPDH was used as loading control. Protein levels of TRIB2, pAKT (S473), Bcl-xL, and Survivin were reduced in cells treated with 12 μM of DCV compared to control-treated cells (FIG. 3A). Levels of FOXO3 protein were increased at 12 μM of DCV treatment compared to control treatment. This was expected, as FOXO3 level is known to be decreased by Trib2. These effects on cellular protein levels were DCV concentration-dependent, with the most pronounced effects observed at the highest concentration tested (12 μM).

[2] = in vivo; cited from earlier work
luciferase = biological target: T2, luciferase (Renilla reniformis, UniProt P27652); test: Counter-screen with control luciferase-transfected HFF cells; format: cell-based
T2 construct: expressed in transfected cells; host or cells: human foreskin fibroblasts (HFF)
T2 sequence (P27652 1-311): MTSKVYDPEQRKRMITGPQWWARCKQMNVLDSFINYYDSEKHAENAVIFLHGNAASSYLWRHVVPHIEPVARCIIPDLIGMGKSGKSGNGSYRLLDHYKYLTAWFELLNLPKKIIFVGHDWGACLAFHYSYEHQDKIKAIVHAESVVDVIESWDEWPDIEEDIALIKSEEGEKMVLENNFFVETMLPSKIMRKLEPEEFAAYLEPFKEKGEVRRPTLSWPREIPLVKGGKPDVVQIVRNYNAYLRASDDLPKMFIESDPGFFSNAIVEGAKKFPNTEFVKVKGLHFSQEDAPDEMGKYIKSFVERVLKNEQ
Procedure: Human foreskin fibroblast cells (HFF) cells were transfected with a Trib2-Luciferase (Luc-Trib2) fusion construct. Cells were plated in 96-well tissue culture plates and treated with compounds (10 μM) for 24 hours. Luciferase activity was measured using an EnduRen™ Live cell substrate kit (commercially available from PROMEGA CORP.®, Madison, WI). […] For further development, selected compounds were counter-screened with control luciferase-transfected HFF cells.
The main hurdle to develop agents to inhibit Trib2 is the lack of a quick and easy assay procedure to effectively screen large number of compounds. To overcome this problem, the present disclosure provides a design for a new assay system to measure the active state of Trib2 protein. The present disclosure describes a Trib2-luciferase gene construct by combining the full length human Trib2 gene with the luciferase gene from Renilla. Destabilization of the three-dimensional conformation of the resultant Trib2-luc fusion protein can deliver reportable outcome via alteration in the enzymatic activity of luciferase. A second screen was designed to eliminate compounds that affects the activity of only luciferase. […] Thus, the luciferase-based assay system (involving first screen and a counter-screen) of the present disclosure emerges as an effective way to identify Trib2-targeting drugs using simple gene transfected cell lines in culture.
Here, the screening strategy used to select compounds based on inhibition of luciferase activity in Trib2-Luc cells, but not in Luc cells. Compounds screened included a representative set of 104 FDA-approved compounds on Trib2-Luciferase fusion construct-transfected HFF cells are shown here. Cells were treated with compounds (10 μM) for 24 hours and measured luciferase activity using a kit from Promega Corp. (Madison, WI). For further development selected compounds are counter-screened with control luciferase-transfected HFF cells.

[3] = tested on: LNCaP-ENR and MR49F ERPC cells; test: In vitro invasion through extracellular matrix; format: cell-based, human; settings: LNCaP-ENR and MR49F ERPC cells (data not shown)

SMILES: COC(=O)N[C@H](C(=O)N1CCC[C@H]1c1nc(-c2ccc(-c3ccc(-c4c[nH]c([C@@H]5CCCN5C(=O)[C@@H](NC(=O)OC)C(C)C)n4)cc3)cc2)c[nH]1)C(C)C [Daclatasvir, 4,4′-bis[2-((2S)-1-{(2S)-2-[(methoxycarbonyl)amino]-3-methylbutanoyl}-2-pyrrolidinyl)-1H-imidazol-4-yl]-1,1′-biphenyl]
- activation of caspase 3 (c-JNK, caspase 3): induces activation
- activation of c-JNK (c-JNK, caspase 3; dose-dependent): rapid and robust activation
- tolerability ([1]; 100 mg po daily): well tolerated
- median peak plasma concentration ([1]; after one dose of 60 mg, listed as DCV): ~ 2 μg/ml and 2.5 μM
- mean terminal half-life ([1]; in vivo): 12 to 15 h
- time to peak plasma concentrations after dosing ([1]; in vivo): 1 to 2 h
- time to steady state levels ([1]; in vivo): after three days of administration
- TRIB2 protein levels (TRIB2; 10 μM, Western blot): downregulated
- TRIB2 protein levels (TRIB2; 12 μM, vs control-treated cells): reduced
- Trib2 protein level (TRIB2; range of aggressive cancer cell lines, including prostate, lung, and kidney): downregulates
- maximum tolerated dose (MTD) [2]: > 200 mg/kg/day
- inhibition of control luciferase activity (counter-screen, without Trib2) (luciferase): passed counter-screen tests
- inhibition of control luciferase activity (counter-screen, without Trib2) (luciferase; listed as DCV): does not inhibit control luciferase activity
- inhibition of control luciferase activity (counter-screen, without Trib2) (luciferase; listed as daclatasvir): does not inhibit luciferase activity in the absence of Trib2
- in vitro invasion through extracellular matrix [3]: dramatically decreases
